In patent US5412123A, “Anthraquinone and anthracene derivatives as inhibitors of the cell-adhesion molecules of the immune system” (Glycomed Incorporated, priority 1993, dated 1995):

Tests used:
E-selectin = assay: Inhibition of E-selectin IgG chimera binding to sLex on microtiter wells; settings: FIG. 6; E-selectin 50 ng/ml; sennoside B from 2 mM, serial 1/2 dilutions; sLex 25 pm/well
Description: (§1) The capacity of the multivalent anthraquinone derivative, Sennoside B, to inhibit selectin binding to sLex was tested essentially as described by Foxall, C., et al J. Cell Biol., vol. 117, pages 895-902 (1992) using selectin IgG chimeras.
(§2) The following assay procedure was used. sLex at 25 pm/well was evaporated onto microtiter wells in MeOH and H2 O overnight. The plates were washed with H2 O and blocked with 5% BSA in PBS with 1 mM Ca for 1 hour. L-selectin was diluted to 35 ng/ml in 1% BSA PBS with 1 mM Ca and 1:1500 biotinylated goat F(ab') anti-human IgG Fc (CalTag, corp.) and streptavidin-alkaline phosphatase. E-selectin at 50 ng/ml and P-selectin at 750 ng/ml were similarly diluted with 1:1000 dilutions of biotinylated goat F(ab') anti-human IgG Fc and streptavidin-alkaline phosphatase. These were allowed to complex for 15 minutes at 37° C.
(§3) Part of each selectin solution was made 2 mM with sennoside B (obtained from Pfaltz and Bauer, Inc., Waterbury, Conn.) The most concentrated solutions were diluted with the selectin solution to yield 3 solutions each 1/2 as concentrated as the previous. The solutions with selectin and inhibitor were incubated for 45 minutes at 37° C. […]
(§4) Binding is expressed as "% of No Addition Control." That is, in some wells, no inhibitor was present, and the binding in these wells represents the maximum (100%) binding.

L-selectin = assay: Inhibition of L-selectin IgG chimera binding to sLex on microtiter wells; settings: FIG. 7; L-selectin 35 ng/ml; sennoside B from 2 mM, serial 1/2 dilutions; sLex 25 pm/well
Description: as §1, §2, §3, §4

P-selectin = assay: Inhibition of P-selectin IgG chimera binding to sLex on microtiter wells; settings: FIG. 8; P-selectin 750 ng/ml; sennoside B from 2 mM, serial 1/2 dilutions; sLex 25 pm/well
Description: as §1, §2, §3, §4

- E-selectin binding to sLex (expressed as % of No Addition Control) (E-selectin): inhibited
- L-selectin binding to sLex (expressed as % of No Addition Control) (L-selectin): inhibited
- P-selectin binding to sLex (expressed as % of No Addition Control) (P-selectin): most inhibited
SMILES: O=C(O)c1cc(O)c2c(c1)[C@@H]([C@H]1c3cc(C(=O)O)cc(O)c3C(=O)c3c(O[C@@H]4O[C@H](CO)[C@@H](O)[C@H](O)[C@H]4O)cccc31)c1cccc(O[C@@H]3O[C@H](CO)[C@@H](O)[C@H](O)[C@H]3O)c1C2=O [Sennoside B]
